The text below walks through data of patent US6060481A, “Method for improving insulin sensitivity using an adenosine receptor antagonist” (priority 1999, dated 2000).

For orientation: Kd means the concentration at which binding is half-saturated.

The target of experiment [1] is T1, human A1 adenosine receptor (Homo sapiens, UniProt P30542).
T1 construct: expressed in transfected cells
T1 sequence (P30542 1-326): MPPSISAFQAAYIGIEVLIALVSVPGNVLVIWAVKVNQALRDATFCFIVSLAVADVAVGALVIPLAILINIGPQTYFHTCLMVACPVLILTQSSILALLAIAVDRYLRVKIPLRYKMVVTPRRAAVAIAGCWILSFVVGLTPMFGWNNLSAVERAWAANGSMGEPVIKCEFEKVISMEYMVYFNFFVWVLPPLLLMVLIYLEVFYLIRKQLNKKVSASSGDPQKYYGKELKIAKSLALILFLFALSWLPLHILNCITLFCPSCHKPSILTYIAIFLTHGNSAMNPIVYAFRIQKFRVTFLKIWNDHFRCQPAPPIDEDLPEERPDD
Briefly: Binding constants against cloned and expressed human adenosine receptor subtypes (A1). The settings on record: read-out: Binding constant (KD) A1.

Experiment [2] has as its target T2, human A2A adenosine receptor (Homo sapiens, UniProt P29274).
T2 construct: expressed in transfected cells
Briefly: Binding constants against cloned and expressed human adenosine receptor subtypes (A2A). The settings on record: read-out: Binding constant (KD) A2A.

Experiment [3] concerns the target T3, human A3 adenosine receptor (Homo sapiens, UniProt P0DMS8).
T3 construct: expressed in transfected cells
T3 sequence (P0DMS8 1-318): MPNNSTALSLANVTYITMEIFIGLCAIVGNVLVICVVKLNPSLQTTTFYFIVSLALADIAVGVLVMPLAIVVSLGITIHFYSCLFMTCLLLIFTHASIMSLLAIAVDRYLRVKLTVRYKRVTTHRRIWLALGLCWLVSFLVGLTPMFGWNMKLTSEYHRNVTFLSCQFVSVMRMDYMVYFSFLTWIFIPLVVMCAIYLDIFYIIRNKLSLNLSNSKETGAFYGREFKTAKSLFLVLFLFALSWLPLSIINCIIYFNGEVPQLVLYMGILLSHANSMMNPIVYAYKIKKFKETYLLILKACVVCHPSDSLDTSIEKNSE
Kind of experiment: Binding constants against cloned and expressed human adenosine receptor subtypes (A3). The settings on record: read-out: Binding constant (KD) A3.

The conditions of experiment [4]: Zucker rats; cited from earlier work.
In experiment [5] the test system is glucose uptake by individual tissues. Briefly: In vivo tissue glucose uptake with 14C 2-deoxyglucose during clamp. Details: species or system Zucker rats. The settings on record: for Decrease in glucose uptake by adipose tissue: epididymal fat, normalized to wet weight. Here is the method: In vivo glucose uptake by individual tissues was determined using [^14 C]-labeled 2-deoxyglucose (2-DG), as described previously in, for example, the Lang references cited above. Tissue-specific glucose uptake was determined between 140 and 180 min after the start of the euglycemic hyperinsulinemic clamp. A tracer amount of 2-DG (8 μCi/rat; Amersham, Arlington Heights, Ill.) was injected intravenously, and tissues obtained 40 min later. Prior to tissue collection, serial arterial blood samples (0.2 ml) were withdrawn into heparinized syringes, plasma deproteinized with perchloric acid and ^14 C-radioactivity determined. Thereafter, animals were anesthetized with sodium pentobarbital, exsanguinated, and selected tissues were excised to determine the intracellular accumulation of phosphorylated 2-DG.
(§1) During the hyperinsulinemic clamp, blood glucose concentrations were determined at 10-min intervals using the YSI glucose analyzer (Yellow Springs, Ohio). Glucose specific activity was determined on neutralized supernatants of deproteinized plasma as taught by Lang, Am. J. Physiol, 263 (Endocrinol. Metab. 26): E703-D711 (1992). Tissue samples (600-900 mg wet wt) were immersed in ice-cold 0.5 N PCA, homogenized, and centrifuged. The concentration of phosphorylated 2-DG in tissues was calculated as the difference between total ^14 C-radioactivity of the neutral extract and the ^14 C-radioactivity remaining after Somogyi treatment as described in detail by Lang CH, Dobrescu C, and Meszaros K., Metabolism 39:1096-1107 (1990).
(§2) Rates of whole body glucose appearance (Ra) and disappearance (Rd) are calculated using the steady-state equations of Steele, Ann. NY Acad. Sci., 82:420-430 (1959). The glucose metabolic clearance rate (MCR) is calculated by dividing the glucose Rd by the prevailing glucose concentration. Since the prevailing insulin levels during the hyperinsulinemic clamp completely suppress endogenous glucose production, the rate of whole body glucose disposal equals the exogenous glucose infusion rate. The increment in insulin-stimulated glucose uptake (IMGU) for each animals is calculated by subtracting the basal endogenous glucose Ra from the measured rate of glucose disposal determined during the last 40 min of the clamp. In vivo glucose uptake for each tissue examined is calculated based on the accumulation of phosphorylated 2-DG by a respective tissue, the integrated 2-DG:glucose ratio in the plasma during the 40-min labeling period, and the lumped constant as described by Lang, Endocrinology, 128:645-653 (1991).

For experiment [6], the system named is whole body glucose uptake. Kind of experiment: Euglycemic hyperinsulinemic clamp, whole body glucose disposal and IMGU. Type of experiment: in vivo, Zucker rats. The protocol:
In this example, 6-8 week old lean and obese female animals were used. Each group received either vehicle or vehicle plus 1,3-dipropyl-8-(p-acrylic)phenylxanthine (BWA1433) (12 mg/kg every 12 h) for one week prior to the start of the experimental protocol, as described by Xu, et al., Am. J. Physiol., 274 (Endocrinol. Metab. 37): E271-E279 (1988). The vehicle in this case was 10 mg/ml methyl cellulose in H2 O. The final dose of BWA1433 or vehicle was administered approximately 1 h prior to the start of the experimental protocol.
After samples were obtained for basal metabolic determinations, a euglycemic hyperinsulinemic clamp was performed. Regular human insulin (Eli Lilly, Indianapolis, Ind.) was infused intravenously at a rate of 100 mU·min^-1 ·kg^-1 for 3 h. This infusion rate has been previously determined to result in steady-state plasma insulin concentrations of approximately 5,000 uU/ml, as reported in Lang, et al., Endocrinology, 130:43-52 (1996); Lang, Am. J. Physiol., 263 (Endocrinol. Metab. 26): E703-E711 (1992); and Lang, et al., Metabolism, 39:1096-1107 (1990). […] Tritiated glucose was not infused during the hyperinsulinemic clamp, because preliminary studies indicate that this insulin infusion rate completely suppresses endogenous glucose appearance in both obese and lean animals.
as §1, §2

[7] abbreviates: obese rats, one week treatment, clamp.

T2 sequence (P29274 whole entry): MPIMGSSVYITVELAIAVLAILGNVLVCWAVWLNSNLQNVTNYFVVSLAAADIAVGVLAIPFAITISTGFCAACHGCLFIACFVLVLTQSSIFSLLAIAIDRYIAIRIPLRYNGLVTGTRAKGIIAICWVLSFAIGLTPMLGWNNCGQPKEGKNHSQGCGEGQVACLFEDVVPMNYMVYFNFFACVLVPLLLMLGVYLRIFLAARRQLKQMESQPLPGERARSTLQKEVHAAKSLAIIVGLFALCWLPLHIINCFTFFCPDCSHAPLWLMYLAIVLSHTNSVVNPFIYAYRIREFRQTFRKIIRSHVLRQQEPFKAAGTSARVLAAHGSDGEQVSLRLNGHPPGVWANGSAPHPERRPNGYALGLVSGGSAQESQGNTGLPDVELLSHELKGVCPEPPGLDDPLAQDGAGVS

Consider `CCCn1c(=O)c2[nH]c(-c3ccc(C=CC(=O)O)cc3)nc2n(CCC)c1=O` [BWA1433, 1,3-dipropyl-8-(p-acrylic)phenylxanthine], for which the Kd in experiment [1] was found to be 140 nM. In addition, the Kd in experiment [2] was 190 nM. For the same compound, the Kd in experiment [3] was found to be 30 nM. In addition, the Glucose tolerance result in experiment [4] is listed as “improves glucose tolerance”. In experiment [5] (lean animals), the “Glucose uptake under hyperinsulinemic conditions in heart” value was “unaffected” and the “Glucose uptake under hyperinsulinemic conditions in liver” value was “unaffected”. Further, in experiment [5] (lean rats), the “Decrease in glucose uptake by gastrocnemius” value is reported as 16%, the “Decrease in glucose uptake by soleus” value is given as 12% and the “Decrease in glucose uptake by adipose tissue” value is 48%. Further, in experiment [5] (obese rats), the “Change in glucose uptake in heart” value was “no significant change”, the “Change in glucose uptake in liver” value was “no significant change” and the “Decrease in glucose uptake by adipose tissue” value came to 54%. Moreover, in experiment [5] (setting [7]), the “Increase in glucose uptake in gastrocnemius compared to vehicle-treated obese rats” value is 44% and the “Increase in glucose uptake in soleus compared to vehicle-treated obese rats” value amounted to 47%. The “Reduction in glucose uptake by fat” value in experiment [5] (on the basis of intracellular aqueous volume, both groups (lean, obese)) is “approximately 50%”. The “Change in IMGU” value in experiment [6] (lean Zucker rats) is listed as “No change”. For the same compound, the “Decrease in whole body glucose disposal” value in experiment [6] (lean animals, hyperinsulinemic clamp) is 16%. For the same compound, in experiment [6] (lean rats), the “Average plasma glucose concentration during final hour of clamp” value was 5.4 ± 0.1 mM. In experiment [6] (obese rats), the “Average plasma glucose concentration during final hour of clamp” value stood at 5.5 ± 0.1 mM and the “Increase in IMGU compared to vehicle-treated obese animals” value is given as “more than 6 fold”. Besides, in experiment [6] (obese rats, hyperinsulinemic clamp), the “Increase in rate of whole body glucose uptake compared to untreated obese rats” value is listed as 88%. The “Whole body glucose uptake rate lower than in lean control animals” value in experiment [6] (treated obese animals versus lean control) is listed as “approximately 50%”.
